Results as given in BigSolDB 2.1.

Cl.N=C(N)Nc1ccc(C(=O)O)cc1
Conditions	solubility (mole fraction)
in ethanol, 294.95 K	0.00291
in ethanol, 300.05 K	0.00316
in ethanol, 305.95 K	0.00343
in ethanol, 310.25 K	0.00387
in ethanol, 315.25 K	0.0042
in ethanol, 320.25 K	0.00478
in ethanol, 325.55 K	0.00514
in ethanol, 330.65 K	0.00558
in isopropanol, 296.35 K	0.0008
in isopropanol, 301.75 K	0.00106
in isopropanol, 307.55 K	0.00127
in isopropanol, 312.95 K	0.00149
in isopropanol, 317.35 K	0.00158
in isopropanol, 321.35 K	0.0017
in isopropanol, 325.15 K	0.00186
in isopropanol, 328.25 K	0.00201
in methanol, 297.95 K	0.0118
in methanol, 302.45 K	0.0128
in methanol, 307.45 K	0.0143
in methanol, 312.95 K	0.0155
in methanol, 317.45 K	0.017
in methanol, 321.25 K	0.0181
in methanol, 324.85 K	0.0192
in methanol, 328.55 K	0.0203
in n-butanol, 293.25 K	0.00103
in n-butanol, 296.85 K	0.00124
in n-butanol, 300.05 K	0.00137
in n-butanol, 303.15 K	0.00149
in n-butanol, 307.55 K	0.00163
in n-butanol, 314.75 K	0.00182
in n-butanol, 320.15 K	0.00194
in n-butanol, 327.15 K	0.00216
in n-pentanol, 292.05 K	0.00042
in n-pentanol, 296.55 K	0.00071
in n-pentanol, 301.75 K	0.0008
in n-pentanol, 310.05 K	0.00096
in n-pentanol, 316.75 K	0.00103
in n-pentanol, 322.95 K	0.00114
in n-pentanol, 327.95 K	0.00121
in n-pentanol, 334.15 K	0.00136
in n-propanol, 295.05 K	0.00368
in n-propanol, 300.75 K	0.00436
in n-propanol, 305.75 K	0.00495
in n-propanol, 309.95 K	0.00564
in n-propanol, 314.55 K	0.00633
in n-propanol, 319.35 K	0.00716
in n-propanol, 322.85 K	0.00753
in n-propanol, 327.75 K	0.00815
in water, 298.05 K	0.00532
in water, 304.55 K	0.00685
in water, 309.95 K	0.00884
in water, 314.85 K	0.0108
in water, 318.55 K	0.0129
in water, 323.55 K	0.0155
in water, 328.85 K	0.018
in water, 333.65 K	0.0218
